Source: patent publication US6316450A, “Compounds” (SmithKline Beecham p.l.c., priority 1997, dated 2001)
pKi: −log10 of the molar value. Counter-ions that a name gives are not always drawn. Like-named read-outs stand apart in the source and are kept apart here.

Molecular target: human cloned 5-HT6 receptors (Homo sapiens, UniProt P50406)
Test: biochemical
Format: binding
Design: selectivity: reference not given here
Settings: for Ki: read-out: pKi (converted)
[1] = [3H]-LSD, HeLa-5HT6 cell membranes, pH 7.7, 37° C.
[2] = selective 5-HT6 receptor antagonist activity

Sequence of human cloned 5-HT6 receptors (P50406 whole entry): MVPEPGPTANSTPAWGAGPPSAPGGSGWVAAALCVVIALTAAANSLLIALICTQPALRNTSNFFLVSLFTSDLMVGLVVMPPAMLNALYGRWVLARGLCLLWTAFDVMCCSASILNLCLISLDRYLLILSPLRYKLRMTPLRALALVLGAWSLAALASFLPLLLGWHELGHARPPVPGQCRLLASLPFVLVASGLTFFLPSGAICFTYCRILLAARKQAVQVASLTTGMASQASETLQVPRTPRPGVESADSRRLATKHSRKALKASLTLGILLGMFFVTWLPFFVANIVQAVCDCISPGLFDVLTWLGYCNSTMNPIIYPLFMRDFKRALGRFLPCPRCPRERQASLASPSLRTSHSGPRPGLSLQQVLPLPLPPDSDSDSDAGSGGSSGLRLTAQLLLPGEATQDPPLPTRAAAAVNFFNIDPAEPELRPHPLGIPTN

| SMILES | Ki [1] | selectivity [2] | pKi | selectivity | Ki |
| --- | --- | --- | --- | --- | --- |
| COc1ccc(S(=O)(=O)Nc2cccc(Br)c2)cc1N1CCN(C)CC1.Cl [Compound 3, N-(3-Bromophenyl)-4-methoxy-3-(4-methylpiperazin-1-yl)benzene sulfonamide hydrochloride] | < 3.16 nM | > 100 | – | – | – |
| COc1ccc(S(=O)(=O)N2CCCc3ccc(C(F)(F)F)cc32)cc1N1CCN(C)CC1 [Compound 8, 1-[4-Methoxy-3-(4-methylpiperazin-1-yl)-benzenesulfonyl]-7-trifluoromethyl-1,2,3,4-tetrahydroquinoline] | < 3.16 nM | > 100 | – | – | – |
| COc1ccc(S(=O)(=O)N2CCc3c(OC)ccc(OC)c3C2)cc1N1CCN(C)CC1.Cl [Compound 21, 5,8-Dimethoxy-2-[4-methoxy-3-(4-methylpiperazin-1-yl)-benzenesulfonyl]-1,2,3,4-tetrahydroisoquinoline hydrochloride] | < 3.16 nM | > 100 | – | – | – |
| COc1ccc(S(=O)(=O)N2CCCc3ccc(C(F)(F)F)cc32)cc1N1CCNCC1 [Compound 29, 1-(4-Methoxy-3-piperizin-1-ylbenzenesulfonyl)-7-trifluoromethyl-1,2,3,4-tetrahydroquinoline hydrochloride] | < 3.16 nM | > 100 | – | – | – |
| COc1ccc(S(=O)(=O)Nc2ccccc2OC(F)(F)F)cc1N1CCN(C)CC1.Cl [Compound 32, N-(2-Trifluoromethoxyphenyl)-4-methoxy-3-(4-methylpiperazin-1-yl)-benzenesulfonamide hydrochloride] | < 3.16 nM | > 100 | – | – | – |
| COc1ccc(S(=O)(=O)Nc2ccc(C)c(C)c2)cc1N1CCN(C)CC1.Cl [Compound 41, N-(3,4-Dimethylphenyl)-4-methoxy-3-(4-methylpiperazin-1-yl)-benzenesulfonamide hydrochloride] | < 3.16 nM | > 100 | – | – | – |
| COc1ccc(S(=O)(=O)N2CCc3cccc(Cl)c3C2)cc1N1CCN(C)CC1.Cl [Compound 44, 8-Chloro-2-[4-methoxy-3-(4-methylpiperazin-1-yl)benzenesulfonyl]-1,2,3,4-tetrahydroisoquinoline hydrochloride] | < 3.16 nM | > 100 | – | – | – |
| COc1ccc(S(=O)(=O)Nc2ccc(F)cc2Cl)cc1N1CCN(C)CC1.Cl [Compound 45, N-(2-Chloro-4-fluorophenyl)-4-methoxy-3-(4-methylpiperazin-1-yl)-benzenesulfonamide hydrochloride] | < 3.16 nM | > 100 | – | – | – |
| COc1ccc(S(=O)(=O)Nc2ccccc2I)cc1N1CCN(C)CC1.Cl [Compound 53, N-(2-Iodophenyl)-4-methoxy-3-(4-methylpiperazin-1-yl)benzenesulfonamide hydrochloride] | < 3.16 nM | > 100 | – | – | – |
| COc1ccc(S(=O)(=O)Nc2ccc(I)cc2Cl)cc1N1CCN(C)CC1.Cl [Compound 54, N-(2-Chloro-4-iodophenyl)-4-methoxy-3-(4-methylpiperazin-1-yl)-benzenesulfonamide hydrochloride] | < 3.16 nM | > 100 | – | – | – |
| C=Cc1ccc(NS(=O)(=O)c2ccc(OC)c(N3CCN(C)CC3)c2)cc1.Cl [Compound 63, 4-Methoxy-3-(4-methylpiperazin-1-yl)-N-(4-vinylphenyl)benzenesulfonamide hydrochloride] | < 3.16 nM | > 100 | – | – | – |
| COc1ccc(S(=O)(=O)Nc2ccc(Br)c(C(F)(F)F)c2)cc1N1CCN(C)CC1.Cl [Compound 67, N-(4-Bromo-3-trifluoromethylphenyl)-4-methoxy-3-(4-methylpiperazin-1-yl)-benzenesulfonamide hydrochloride] | < 3.16 nM | > 100 | – | – | – |
| COc1ccc(S(=O)(=O)Nc2ccc(Cl)c(C(F)(F)F)c2)cc1N1CCN(C)CC1.Cl [Compound 69, N-(4-Chloro-3-trifluoromethylphenyl)-4-methoxy-3-(4-methylpiperazin-1-yl)-benzenesulfonamide hydrochloride] | < 3.16 nM | > 100 | – | – | – |
| COc1ccc(S(=O)(=O)N2CCCc3c(Cl)cc(Cl)cc32)cc1N1CCN(C)CC1.Cl [Compound 73, 5,7-Dichloro-1-[4-methoxy-3-(4-methylpiperazin-1-yl)benzenesulfonyl]-1,2,3,4-tetrahydroquinoline hydrochloride] | < 3.16 nM | > 100 | – | – | – |
| COc1ccc(S(=O)(=O)Nc2ccccc2C(C)C)cc1N1CCNCC1.Cl [Compound 79, N-(2-Isopropylphenyl)-4-methoxy-3-piperazin-1-yl-benzenesulfonamide hydrochloride] | – | – | > 8.50 | > 100 | – |
| COc1ccc(S(=O)(=O)Nc2ccccc2SC)cc1N1CCNCC1.Cl [Compound 85, 4-Methoxy-N-(2-methylsulfanylphenyl)-3-piperazin-1-ylbenzenesulfonamide hydrochloride] | < 3.16 nM | > 100 | – | – | – |
| CCc1ccccc1NS(=O)(=O)c1ccc(OC)c(N2CCNCC2)c1.Cl [Compound 88, N-(2-Ethylphenyl)-4-methoxy-3-piperazin-1-ylbenzenesulfonamide hydrochloride] | < 3.16 nM | > 100 | – | – | – |
| COc1ccc(S(=O)(=O)Nc2cccc(C(F)(F)F)c2)cc1N1CCNCC1.Cl [Compound 89, 4-Methoxy-3-piperazin-1-yl-N-(3-trifluoromethylphenyl)benzenesulfonamide hydrochloride] | < 3.16 nM | > 100 | – | – | – |
| COc1ccc(S(=O)(=O)Nc2ccccc2Br)cc1N1CCNCC1.Cl [Compound 91, N-(2-Bromophenyl)-4-methoxy-3-piperazin-1-ylbenzenesulfonamide hydrochloride] | – | – | > 8.50 | > 100 | – |
| COc1ccc(S(=O)(=O)Nc2cc(Br)ccc2Br)cc1N1CCNCC1.Cl [Compound 100, N-(2,5-Dibromophenyl)-4-methoxy-3-piperazin-1-ylbenzenesulfonamide hydrochloride] | < 3.16 nM | > 100 | – | – | – |
| C=C(C)c1ccccc1NS(=O)(=O)c1ccc(OC)c(N2CCNCC2)c1.Cl [Compound 104, N-(2-Isopropenylphenyl)-4-methoxy-3-piperazin-1-ylbenzenesulfonamide hydrochloride] | < 3.16 nM | > 100 | – | – | – |
| COc1ccc(S(=O)(=O)Nc2ccc(C(C)(C)C)cc2)cc1N1CCNCC1.Cl [Compound 107, N-(4-tert-Butylphenyl)-4-methoxy-3-piperazin-1-ylbenzenesulfonamide hydrochloride] | < 3.16 nM | > 100 | – | – | – |
| COc1ccc(S(=O)(=O)Nc2ccccc2-c2ccccc2)cc1N1CCNCC1.Cl [Compound 113, N-Biphenyl-2-yl-4-methoxy-3-piperazin-1-ylbenzenesulfonamide hydrochloride] | < 3.16 nM | > 100 | – | – | – |
| COc1ccc(S(=O)(=O)Nc2cc(Cl)c(Cl)cc2Cl)cc1N1CCNCC1.Cl [Compound 131, N-(2,4,5-Trichlorophenyl)-4-methoxy-3-piperazin-1-ylbenzenesulfonamide hydrochloride] | < 3.16 nM | > 100 | – | – | – |
| COc1ccc(Cl)cc1NS(=O)(=O)c1ccc(OC)c(N2CCNCC2)c1.Cl [Compound 132, N-(5-Chloro-2-methoxyphenyl)-4-methoxy-3-piperazin-1-ylbenzenesulfonamide hydrochloride] | < 3.16 nM | > 100 | – | – | – |
| COc1ccc(S(=O)(=O)N2CCCc3ccc(Br)cc32)cc1N1CCNCC1.Cl [Compound 145, 7-Bromo-1-(4-methoxy-3-piperazin-1-ylbenzenesulfonyl)-1,2,3,4-tetrahydroquinoline hydrochloride] | – | – | – | > 100 | < 3.16 nM |
